No end group written: not given here.
Columns and labels:
human Y4 receptor = human Y4 receptor (Homo sapiens, UniProt P50391); test: Human Y Receptor-4 Displacement Assay; settings: for binding to the Y4 receptor compared with code 6672: comparator compound of SEQ ID NO:72 (code 6672)
From the text: Human Y Receptor-4 Displacement Assay:
The principle of the displacement assay is a fixed quantity of radiolabeled ligand competes with varying doses of a ‘cold’ (non-labelled) ligand for a limited number of receptor binding sites, enabling quantification of the affinity of the cold ligand to the receptor.
The cDNA clone was transformed into competent E.coli so a larger preparation of DNA could be produced which was transfected into HEK-293T cells. Using antibiotics, cells expressing the transfected cDNA were selected for, and those cells containing the receptor plasmid were scaled up for a cell membrane preparation. Cells were harvested from culture flasks by scraping, and then homogenized and the membrane separated from other cellular material by differential centrifugation.
For the displacement assay all reagents are prepared in displacement assay buffer (25 mM HEPES pH 7.4, 2 mM MgCl2, 4 mM CaCl2 1% BSA, 4 mM) containing protease inhibitors (2 mM phenylmethanesulphonylfluoride, 0.5 mM diprotin A and 0.5 mM phosphoramidon). One thousand counts/sec/tube ^I125PP (iodinated by the direct iodogen method) is used as the radiolabeled peptide, and the competing peptide is tested at varying concentrations between 10 uM and 0.02 pM, with each concentration tested in a minimum of duplicate. To each assay tube a volume of the prepared membrane, enough for total counts (where no competing peptide is present) of 10000-15000 counts/240 second is added. Reagents are added in the following order: buffer, label competing peptide and cell membrane, with a total volume is 500 μl.
The assay is incubated at room temperature for 90 minutes before the receptor-^125PP complex is separated from free label by centrifugation at 15600 g for 3 minutes. The supernatant is removed and discarded and the pellet resuspended and washed with 500 μl fresh assay buffer and re-centrifuged. After centrifugation and removal of supernatant the radioactivity of the pellet was measured for 240 seconds using a γ-counter. Specific binding is calculated as the difference between the amount of ^125I-PP bound in the absence (total) and presence (non-specific) of unlabelled peptide. From the binding data, an IC50 for the competing peptide is calculated. Each peptide is tested on a minimum of two separate occasions.

Male C57BL/6 mice = test: In vivo food intake experiments in mice (half-life in the blood judged from appetite suppression); parameters: species or system mouse; settings: comparator native human PP; judged from food intake reduction in mice (4-8 h, 0-24 h, 4:1 or 24:1 ratio)
Experimental: In Vivo Food Intake Experiments
Male C57BL/6 mice (20-30 g) were used for all mouse experiments. Mice were individually housed in IVC cages. Animals were randomized by weight and fasted overnight for 16 hrs before intraperitoneal injection at 9 am. All peptide solutions were prepared freshly the morning of the study and injected as 100 ul. Food intake was measured at 1, 2, 3, 4, 6, 8 and 24 hours post injection. The peptide was dosed at 30 nmol/kg, 50 nmol/kg, 100 nmol/kg, 120 nmol/kg, 150 nmol/kg, 300 nmol/kg, 600 nmol/kg or 1000 nmol/kg depending on the activity. In each case, a control of saline and a control of unmodified human Pancreatic Polypeptide was carried out. All statistics are calculated using a one-way ANOVA with Dunnett's post-test or one-way ANOVA with Bonferroni post-test.
A control of saline was used.
FIG. 2 and in the comparative graph of FIG. 3. […] It is hypothesized that that is as a possible result of stronger activity at the receptor and longer activity.
The mouse is a good model for degradation rates in humans, irrespective of the fact that the receptors for PP in mice are different from the human receptor.

[1] = injected intracerebroventricularly; cited from earlier work
Y5 receptor = biological target: T1, Y5 receptor (Homo sapiens, UniProt Q15761); settings: cited from earlier work
T1 sequence (Q15761 1-445): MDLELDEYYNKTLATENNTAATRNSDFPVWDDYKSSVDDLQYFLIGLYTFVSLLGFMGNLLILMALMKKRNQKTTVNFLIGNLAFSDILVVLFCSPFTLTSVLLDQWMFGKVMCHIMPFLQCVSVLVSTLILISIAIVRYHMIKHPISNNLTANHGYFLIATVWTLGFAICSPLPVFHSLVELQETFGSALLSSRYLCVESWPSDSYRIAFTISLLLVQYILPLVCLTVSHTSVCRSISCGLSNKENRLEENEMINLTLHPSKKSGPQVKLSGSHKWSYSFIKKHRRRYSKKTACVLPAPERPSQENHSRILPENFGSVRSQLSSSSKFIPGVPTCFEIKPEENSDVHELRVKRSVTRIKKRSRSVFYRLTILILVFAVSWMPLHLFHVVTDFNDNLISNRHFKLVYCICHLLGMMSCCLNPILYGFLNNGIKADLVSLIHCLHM

mice = settings: peripheral administration; cited from earlier work
healthy volunteers = settings: cited from earlier work
[2] = tested on: children with Prader-Willi syndrome; settings: 100 pmol/kg/h for 90 minutes; cited from earlier work

Chain of human Y4 receptor (P50391 whole entry): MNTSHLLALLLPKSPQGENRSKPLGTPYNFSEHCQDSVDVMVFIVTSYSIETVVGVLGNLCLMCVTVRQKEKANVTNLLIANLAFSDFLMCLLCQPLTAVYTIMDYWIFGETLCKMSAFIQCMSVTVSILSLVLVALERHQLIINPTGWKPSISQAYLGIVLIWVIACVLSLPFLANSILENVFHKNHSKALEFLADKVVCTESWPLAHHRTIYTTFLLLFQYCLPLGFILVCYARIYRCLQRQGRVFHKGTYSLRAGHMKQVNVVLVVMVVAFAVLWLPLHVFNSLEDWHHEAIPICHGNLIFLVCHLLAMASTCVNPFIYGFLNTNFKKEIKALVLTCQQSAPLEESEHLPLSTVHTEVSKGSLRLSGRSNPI

With “7215 (AAPLEPVYPGDNATPEQMAQYAAALRRYINKLTRPRY) [compound 7215]” the “binding at the Y4 receptor compared with code 7214” value (human Y4 receptor; comparator SEQ ID NO:167 (code 7214)) was “still further better binding at the Y4 receptor”.

With “6675 (KPLEPVYPGDNATPEELNRYYASLRRYINMLTRPRY) [compound 6675]” the “binding to the Y4 receptor compared with code 6672” value (human Y4 receptor) was “stronger binders”.

For “4059668 (GAPLEPHFPGDNATPEEMAKYAAELRRYINKLTRPRY; synthetic hPP analogue peptide) [compound 4059668]”, the “half-life in the blood compared with native human PP” value (Male C57BL/6 mice) was “longer half-life”.

With “6435 (KPLEPVYPGDNATPEQMAQYAADLRRYINMLTRPRY) [compound 6435]” the “half-life in the blood compared with native human PP” value (Male C57BL/6 mice) was “longer half-life”.

In the case of [K^4]PP, the “effect on food intake” value [1] is listed as “strong stimulatory effect on food intake” and the “affinity to the Y5-receptor” value (Y5 receptor) is listed as “strong affinity”.

For [RYYSA^19-23]PP, the “effect on food intake” value [1] is listed as “strong stimulatory effect on food intake” and the “affinity to the Y5-receptor” value (Y5 receptor) is listed as “strong affinity”.

For 2-36[K^4, RYYSA^19-23]PP, the “effect on food intake” value [1] is listed as “strong stimulatory effect on food intake” and the “affinity to the Y5-receptor” value (Y5 receptor) is listed as “strong affinity”.

For “mouse PP: mouse Pancreatic Polypeptide, literature (APLEPMYPGDYATPEQMAQYETQLRRYINTLTRPRY; ends and bridges not checked; UniProt P10601 30-65, looked up)”, the “effect on energy balance, food intake and energy expenditure” value (mice) is given as “induce a negative energy balance by decreasing food intake and stimulating energy expenditure”.

With “7218 (AAPLEPVYPGDNATPEQMAQYAADLRRYINKLTRPRY) [compound 7218]” the “binding to the Y4 receptor compared with codes 6433 and 4055855” value (human Y4 receptor; comparators SEQ ID NO:9 (Ala 0, code 6433) and SEQ ID NO:281 (Lys 30, code 4055855)) was “binds the Y4 receptor better”.

In the case of “6674 (KPLEPVYPGDNATPEELNRYYASLRRYINMLTRPRY) [compound 6674]”, the “binding to the Y4 receptor compared with code 6672” value (human Y4 receptor) is reported as “stronger binders”.

In the case of “Ala Pro Leu Glu Pro Val Tyr Pro Gly Asp Asn Ala Thr Pro Glu Gln Met Ala Gln Tyr Ala Ala Asp Leu Arg Arg Tyr Ile Asn Met Leu Thr Arg Pro Arg Tyr NH2 [native human PP]”, the “reduction in energy intake” value (healthy volunteers; infusion 5 pmol/kg/min (300 pmol/kg/h) for 90 minutes) is given as 11%, the “effect on appetite and food intake” value (healthy volunteers; infusion 10 pmol/kg/min (600 pmol/kg/h) for 90 minutes) is given as “reduce appetite and food intake” and the “decrease in 24 hour cumulative energy intake” value (healthy volunteers; infusion 10 pmol/kg/min for 90 minutes) is given as 25%. For the same substance, the effect on appetite [2] was “no effect on appetite”.
